Measurements taken from US10433548B2, “Biocidal compositions comprising iron chelators” (Arch Chemicals, Inc., priority 2012, dated 2019).
In brackets after ≈: the same amount, converted by molar mass. Like-named read-outs stand apart in the source and are kept apart here.

How the values were obtained:
A. brasiliensis = assay: Minimum Inhibitory Concentration (MIC) test, 96-well microtiter plate; type: cell-based; set-up: unit not given here
Method: (§1) Activities of antimicrobial compositions of the present invention were tested against a range of typical skin microorganisms in a Minimum Inhibitory Concentration (MIC) test. MICs for the organisms were determined in a standard 96-well microtiter plate assay in Brain Heart Infusion Broth (BHI) for P. acnes; Tryptic Soy Broth (TSB) for the remaining bacteria; Ushijima Broth for M. furfur; Sabouraud Dextrose Broth (SDB) for other fungi. Samples were tested in duplicate on separate plates. For bacteria and fungi plates, samples were serially diluted into double strength media on the microtiter plates. The bacterial or fungal inocula, suspended in sterile deionized water, were then added to the wells in 1:1 ratio to the medium. The final concentration of bacteria in the wells was 5×10^5 CFUs/mL, the final concentration of fungi was 5×10^4 cells or spores/mL. Plates were incubated: anaerobically at 35° C. for 7 days for P. acnes; aerobically at 35° C. for 2 days for the remaining bacteria and aerobically at 35° C. for 7 days for M. furfur; aerobically at 28° C. for 7 days for T. mentagrophytes.

M. furfur = assay: as above; type: cell-based; set-up: unit not given here
Method: as §1

S. epidermidis = assay: as above; type: cell-based; set-up: unit not given here
Method: as §1

P. aeruginosa [1] = assay: as above; type: cell-based; set-up: unit not given here
Method: as §1

P. faveolarum = assay: as above; type: cell-based; set-up: unit not given here
Method: as §1

T. mentagrophytes = assay: as above; type: cell-based; set-up: unit not given here
Method: as §1

C. albicans = assay: as above; type: cell-based; set-up: unit not given here; conditions: concentration of ZPT; ZPT alone or with potentiator, Molar Eq (Pot:ZPT) 10:1, 8-HQ-Zn 1:1
Method: as §1

B. subtilis = assay: as above; type: cell-based; set-up: unit not given here
Method: as §1

C. pyrenoidosa = assay: as above; type: cell-based; set-up: unit not given here
E. coli [2] = assay: as above; type: cell-based; conditions: Active ZPT alone or plus chelator or chelator + Zn(II); Molar Ratio HBED 10×, 8-HQ 5×, 8-HQ + Zn(II) 1×, 2-HPNO 10×
Method: as §1

P. aeruginosa [3] = assay: Time-kill test (microbial reduction); type: cell-based; conditions: for log reduction: from initial microbial population
Method: (§2) Time-kill test were performed to assess microbial reduction by antimicrobial agents, with and without chelators, against S. aureus, P. aeruginosa, and E. coli.
(§3) 100 μL of sample and 100 μL of bacterial suspension at 5×10^5 cells/mL was loaded into the first well of each row in a 96-well plate, mixed and after specific contact time, 10-fold serial dilutions were made using a multichannel pipette by transferring 20 μL into 180 μL of Letheen broth, mixing 10 times. The process was repeated. Thereafter, three replicates of 10 μL from each of the six selected dilutions were plated onto Tryptic Soy Agar using a 2-20 μL monochannel pipette. Plates were allowed to dry, then placed into an incubator at 35° C. for 24 hrs. Colonies (0.5-1 mm) were enumerated using a colony counter.

E. coli [4] = assay: Time-kill test (microbial reduction); type: cell-based; conditions: E. coil; for log reduction: from initial microbial population
Method: as §2, §3

S. aureus = assay: Time-kill test (microbial reduction); type: cell-based; conditions: for log reduction: from initial microbial population
Method: as §2, §3

R. subcapitata = assay: Minimum Inhibitory Concentration (MIC) test, 96-well microtiter plate; type: cell-based; set-up: unit not given here
P. acnes = assay: as above; type: cell-based; conditions: for MIC: Cutibacterium acnes
Method: as §1

A. pullulans = assay: as above; type: cell-based; set-up: unit not given here; conditions: concentration of BIT; BIT alone or with potentiator, Molar Eq (Pot:BIT) 10:1
Method: as §1

[5] = system: S. aureus, P. aeruginosa, and E. coli; conditions: in combination with ZPT
Method: as §2, §3

[6] = concentration of ZPT, ZPT alone or with potentiator, Molar Eq (Pot:ZPT) 10:1, 8-HQ-Zn 1:1
[7] = Active ZPT alone or plus chelator or chelator + Zn(II), Molar Ratio HBED 10×, 8-HQ 5×, 8-HQ + Zn(II) 1×, 2-HPNO 10×
[8] = concentration of BIT, BIT alone or with potentiator, Molar Eq (Pot:BIT) 10:1

zinc pyrithione [ZPT]
MIC A. brasiliensis (A. brasiliensis; [6]): 7.81-15.6
MIC M. furfur (M. furfur; [7]): 1.25-1.95
MIC M. furfur (M. furfur; [6]): 0.98-4
MIC S. epidermidis (S. epidermidis; [7]): 1.95-7.8
MIC S. epidermidis (S. epidermidis; [6]): 1.95-7.8
MIC P. aeruginosa (P. aeruginosa [1]; [7]): 31.25-62.5
MIC P. aeruginosa (P. aeruginosa [1]; [6]): 31-62
MIC P. faveolarum (P. faveolarum; [6]): 0.05-2
MIC T. mentagrophytes (T. mentagrophytes; [7]): 3.91-5
MIC T. mentagrophytes (T. mentagrophytes; [6]): 3.91-8
MIC C. albicans (C. albicans): 7.81
MIC B. subtilis (B. subtilis; [6]): 1.95-4
MIC C. pyrenoidsa (C. pyrenoidosa; [6]): 0.24-4
MIC E. Coli (E. coli [2]): 1.95-7.81
CFU (P. aeruginosa [3]; 4 hr contact): 7.3 × 10^6 CFUs/mL
log reduction (P. aeruginosa [3]; 4 hr contact): 1 log
CFU (P. aeruginosa [3]; 8 hr contact): 6.3 × 10^6 CFUs/mL
log reduction (P. aeruginosa [3]; 8 hr contact): 2 log
CFU (E. coli [4]; 4 hr contact): >10^7 CFUs/mL
log reduction (E. coli [4]; 4 hr contact): 0 log
CFU (E. coli [4]; 8 hr contact): >10^7 CFUs/mL
log reduction (E. coli [4]; 8 hr contact): 0 log
log reduction (S. aureus; 4 hr contact): 1 log
log reduction (S. aureus; 8 hr contact): 2 log
MIC R. subcapitata (R. subcapitata; [6]): 1.95-4

Oc1cccc2cccnc12 [8-HQ, 8-hydroxyquinoline]
MIC M. furfur (M. furfur; [7]): 1.95
MIC S. epidermidis (S. epidermidis; [7]): 0.49
MIC P. aeruginosa (P. aeruginosa [1]; [7]): 125
MIC T. mentagrophytes (T. mentagrophytes; [7]): 7.81
MIC (P. acnes; read-out: MIC values against P. acnes, Benzoyl Peroxide): 0.78 µg/mL (≈ 5.37 µM)
MIC (P. acnes; read-out: MIC values against P. acnes, Salicylic Acid): 0.78 µg/mL (≈ 5.37 µM)
MIC E. Coli (E. coli [2]): 7.81
CFU (P. aeruginosa [3]; 4 hr contact): 2.6 × 10^6 CFUs/mL
log reduction (P. aeruginosa [3]; 4 hr contact): 1 log
CFU (P. aeruginosa [3]; 8 hr contact): 3 × 10^5 CFUs/mL
log reduction (P. aeruginosa [3]; 8 hr contact): 3 log
CFU (E. coli [4]; 4 hr contact): 8.6 × 10^5 CFUs/mL
log reduction (E. coli [4]; 4 hr contact): 2 log
CFU (E. coli [4]; 8 hr contact): 1.2 × 10^6 CFUs/mL
log reduction (E. coli [4]; 8 hr contact): 2 log
CFU (S. aureus; 4 hr contact): 1.6 × 10^5 CFUs/mL
log reduction (S. aureus; 4 hr contact): 1 log
CFU (S. aureus; 8 hr contact): 6.3 × 10^5 CFUs/mL
log reduction (S. aureus; 8 hr contact): 2 log

O=C(O)CN(CCN(CC(=O)O)Cc1ccccc1O)Cc1ccccc1O [HBED, N,N-bis(2-hydroxybenzyl)ethylenediamine-N,N-diacetic acid]
MIC A. brasiliensis (A. brasiliensis; [8]): 32.50
MIC M. furfur (M. furfur; [7]): 3.91
MIC S. epidermidis (S. epidermidis; [7]): 0.98
MIC P. aeruginosa (P. aeruginosa [1]; [7]): 62.5
MIC P. aeruginosa (P. aeruginosa [1]; [8]): 8.13
MIC P. faveolarum (P. faveolarum; [8]): 4.06
MIC A. pullulans (A. pullulans): 4.06
MIC T. mentagrophytes (T. mentagrophytes; [7]): 0.49
MIC B. subtilis (B. subtilis; [8]): 0.51
MIC C. pyrenoidsa (C. pyrenoidosa; [8]): 2.03
MIC values against P. acnes, Benzoyl Peroxide (P. acnes; Benzoyl Peroxide without chelator or with chelator, Molar Eq. HBED 10×, 8-HQ 5×, DTPA 10×, Desferrioxamine 1×): 3.13 ppm
MIC values against P. acnes, Salicylic Acid (P. acnes; Salicylic Acid without chelator or with chelator, Molar Eq. HBED 10×, 8-HQ 5×, DTPA 10×, Desferrioxamine 1×): 3.13 ppm
MIC E. Coli (E. coli [2]): 15.63
ranking of chelators in time-kill studies [5]: best chelator
CFU (P. aeruginosa [3]; 4 hr contact): >10^7 CFUs/mL
log reduction (P. aeruginosa [3]; 4 hr contact): 0 log
CFU (P. aeruginosa [3]; 8 hr contact): 1.6 × 10^5 CFUs/mL
log reduction (P. aeruginosa [3]; 8 hr contact): 3 log
CFU (E. coli [4]; 4 hr contact): 8.3 × 10^5 CFUs/mL
log reduction (E. coli [4]; 4 hr contact): 2 log
CFU (E. coli [4]; 8 hr contact): 1.6 × 10^6 CFUs/mL
log reduction (E. coli [4]; 8 hr contact): 2 log
CFU (S. aureus; 4 hr contact): 1.4 × 10^6 CFUs/mL
log reduction (S. aureus; 4 hr contact): 1 log
CFU (S. aureus; 8 hr contact): 2.3 × 10^5 CFUs/mL
log reduction (S. aureus; 8 hr contact): 2 log
MIC R. subcapitata (R. subcapitata; [8]): 4.06
